{
  "source": "patent US20230094545A1",
  "about": "“S1P RECEPTOR MODULATORS” (AKAAL PHARMA PTY LTD, priority 2020, published 2023)",
  "key": {"[1]": {"tested_on": "atopic dermatitis", "assay": "Topical treatment of atopic dermatitis patients", "format": "in vivo, human", "experimental": "(§1) Atopic dermatitis patients were treated with the compound of Formula I@60 mg daily dosing as topical treatment for 28 consecutive days."}, "[2]": {"assay": "Topical treatment of atopic dermatitis patients", "format": "in vivo, human", "details": "human, in vivo; by week 3, 60 mg daily topical; read-out: systemic exposure", "experimental": "as §1"}, "[3]": {"tested_on": "psoriasis", "assay": "Topical treatment of psoriasis patients", "format": "in vivo, human", "experimental": "(§2) Twelve psoriasis patients were treated with the compound of Formula I@30 mg daily dosing under occlusion as topical treatment for 28 consecutive days. […] The systemic exposure after topical applications was recorded below the limit of quantification (BLQ) <0.400 ng/mL."}, "[4]": {"assay": "Topical treatment of psoriasis patients", "format": "in vivo, human", "details": "human, in vivo, 30 mg daily; after topical applications, below the limit of quantification; read-out: systemic exposure", "experimental": "as §2"}, "[5]": {"tested_on": "EAE", "assay": "Animal model of multiple sclerosis (EAE induced with guinea pig MBP)", "format": "in vivo, Lewis rats", "details": "EAE rats, oral every day until day 26", "experimental": "The oral treatment with a compound of formula (I) was conducted in an animal model of multiple sclerosis. EAE was induced in female Lewis rats with guinea pig MBP (25 μg/rat)."}, "[6]": {"tested_on": "RAW 264.7 cell line (monocyte cells)", "assay": "Heat-killed P. acne challenged RAW 264.7 cells, cytokines by ELISA", "format": "cell-based", "details": "Mus musculus, RAW264.7, compared to untreated", "experimental": "RAW 264.7 cell line (monocyte cells) challenged with the heat-killed Propionibacterium acne (P. acne) and incubated for 1 hour and were divided into four groups as G1=not challenged with P. acne, G2=challenged with P. acne but untreated, G3=challenged with P. acne and treated with 1 μM of compound of formula I, G3=challenged with P. acne and treated with 3 μM of compound of formula I. The ELISA method was used to analyze the effect of compound of formula I on the secretion of proinflammatory cytokines the TNFα and IL6. Compound of formula I inhibits the cytokines in P. acne challenged monocyte cells. The results are shown in below FIG. 6. The compound of formula I inhibit the secretion of TNFα@1 μM=˜42% and @3 μM=˜69% and IL6@1 μM=˜27% and @3 μM=˜42% compared to untreated in P. acne challenged cell line."}, "[7]": {"tested_on": "Incision mediated pain", "assay": "Deep incision wound mediated pain, topical treatment", "format": "in vivo, Sprague Dawley Rats", "source_text": "The total 24 female Sprague Dawley Rats were assigned to two test and two control groups having 6 animals per group. Animals from G1 and G2 received CFA on Day 1 by intraplanter route followed application of test item (0 and 3% respectively), onto injection site from Day 1 to Day 7. Group G3 and G4 animals received deep incision through the skin and fascia of the plantar foot followed by application of test item (0 and 3% respectively), onto the incision site from Day 1 to Day 7. Clinical signs, body weight and pain assessment parameters like Von Frey estimation and FOB was evaluated and the pain reduction results at Day 7 are summarized in Table 7."}, "[8]": {"tested_on": "kainic acid induced seizures", "assay": "Kainic acid model of epilepsy", "format": "in vivo, Sprague Dawley rats", "experimental": "In an animal model of epilepsy, Sprague Dawley rats (n=6) were treated with the compound of Formula I or vehicle, dosed 1 hour prior to kainic acid administration (10 mg/kg, IP). […] There was significant reduction in seizures (70%, p<0.005) in the compound of formula (I) treated group. The changes observed in the hippocampal region of control animals included, minimal to mild neuronal cell death which included vaculations in neuronal cells particularly at C3 and C1 regions proving the compound of Formula I is neuroprotective."}, "[9]": {"molecular_target": "S1P1 receptor (Homo sapiens, UniProt P21453)", "sequence (P21453 whole entry)": "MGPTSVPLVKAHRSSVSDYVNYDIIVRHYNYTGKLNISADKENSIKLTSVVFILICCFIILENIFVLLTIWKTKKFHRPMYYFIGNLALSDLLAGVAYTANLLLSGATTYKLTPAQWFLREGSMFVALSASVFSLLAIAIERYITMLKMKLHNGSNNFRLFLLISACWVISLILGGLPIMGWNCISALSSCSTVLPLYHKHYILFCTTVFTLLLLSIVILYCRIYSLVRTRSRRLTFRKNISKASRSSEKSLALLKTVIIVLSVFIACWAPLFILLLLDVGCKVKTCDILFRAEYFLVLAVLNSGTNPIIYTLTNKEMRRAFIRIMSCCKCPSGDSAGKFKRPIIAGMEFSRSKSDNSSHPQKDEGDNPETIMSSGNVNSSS", "assay": "S1P1 receptor degradation (activity v/s degradation margin)", "format": "cell-based"}, "[10]": {"assay": "8 mg daily oral dosing for 7 days in healthy human subjects: systemic exposure, lymphocyte counts", "format": "in vivo", "experimental": "One cohort (8 human subjects) was treated daily with 8 mg oral dosing for 7 consecutive days."}, "[11]": {"tested_on": "microglial (BV2 cells) and macrophages (Raw cells)", "assay": "LPS-treated microglial and macrophage cells, cytokines by ELISA", "format": "cell-based", "details": "1-5 μg/mL, 4 hrs prior to LPS 500 ng/mL, p<0.05", "experimental": "Treatment of a compound of formula (I) (1-5 μg/mL) to the cultured microglial (BV2 cells) and macrophages (Raw cells) was made 4 hrs prior to treatment with lipopolysaccharide (LPS) at 500 ng/mL. After 16-18 hr of drug treatment the cytokines (TNFα, IL1β and IL6) were measured in culture media by ELISA and expression levels of cyclooxygenase2 (Cox-2), inducible […] (iNOS) or beta actin were analysed in cell homogenates by western analysis."}, "[12]": {"tested_on": "LPS mediated systemic inflammation", "assay": "LPS-induced sepsis model", "format": "in vivo, Sprague-Dawley rats", "details": "3 mg/Kg oral 1 h after LPS and every 24 h", "experimental": "Sepsis was induced in female Sprague-Dawley rats by LPS (5 mg/kg) administration and treated orally with compound of Formula I (3 mg/Kg) 1 h after and every 24 h thereafter to determine the effect of a compound of formula (I) in this animal model of sepsis (LPS mediated systemic inflammation). Animals were sacrificed at 24 and 72h post LPS treatment."}, "[13]": {"assay": "Systemic exposure and lymphopenia in mice", "format": "in vivo"}, "[14]": {"tested_on": "dinitrofluorobenzene (DNFB)-induced delayed-type hypersensitivity", "assay": "DNFB-induced delayed-type hypersensitivity (DTH)", "format": "in vivo", "details": "3 mg/kg twice daily", "experimental": "The efficacy of compound of formula (I) was determined in an animal model of dinitrofluorobenzene (DNFB)-induced delayed-type hypersensitivity (DTH), an inflammatory model. The animals (n=9) were treated with the vehicle or a compound of formula (I), receiving a twice daily dose of 3 mg/kg. The efficacy end points were measured as Ear thickness before challenge and 24 h after challenge. Ear weight was measured 24 h after challenge. At sacrifice, right ear samples were collected and used for tissue MPO activity."}, "[15]": {"details": "read-out: inhibition of secretion of IL6"}, "[16]": {"details": "read-out: inhibition of secretion of TNFα"}, "[17]": {"details": "individual healthy human subjects, 8 mg oral daily for 7 days, listed as compound of formula (1)"}},
  "note": "Where “and” joins values, the source holds several entries; their conditions need not be identical. Identical values can stand only once. Entries after “also recorded” stand apart in the source; their conditions may differ. Like-named read-outs stand apart in the source and are kept apart here.",
  "data": [
    {"compound": "CCCOc1ccc(-c2nc(-c3ccc4oc(C(N)(CO)CO)cc4c3)no2)cc1Cl", "note": "[compound of formula (I)]", "values": [
      {"measurement": "EASI score and pruritus score", "setting": "[1]; 60 mg daily topical, 28 days", "result": "reduction compared to baseline"},
      {"measurement": "absolute lymphocyte count", "setting": "[1]; 60 mg daily topical, 28 days", "result": "no systemic change in the absolute lymphocyte count"},
      {"measurement": "tolerability", "setting": "[1]; 60 mg daily topical, 28 days", "result": "well tolerated"},
      {"measurement": "lymphopenia", "setting": "[1]; by week 3", "result": "no lymphopenia event"},
      {"measurement": "concentration at 3 week", "setting": "[2]", "result": "1 to 2.5", "unit": "ng/mL"},
      {"measurement": "absolute lymphocyte count", "setting": "[3]; 30 mg daily topical, 28 days", "result": "no systemic change in the absolute lymphocyte count"},
      {"measurement": "tolerability", "setting": "[3]; 30 mg daily topical, 28 days", "result": "well tolerated"},
      {"measurement": "local psoriasis severity index (LPSI) score", "setting": "[3]; day 28, from 5.8 (day 1), 30 mg daily topical under occlusion, p<0.0016", "result": "−2.1"},
      {"measurement": "plaque area", "setting": "[3]; some subjects, image analysis", "result": "reduction in plaque area"},
      {"measurement": "concentration at 28 days", "setting": "[4]", "result": "< 0.4", "unit": "ng/mL"},
      {"measurement": "lymphopenia", "setting": "[5]", "result": "lymphopenia was less; also recorded: short-term and quickly reversed"},
      {"measurement": "inhibition at 1 µM", "setting": "[6]; [15]", "result": "~27", "unit": "%"},
      {"measurement": "inhibition at 1 µM", "setting": "[6]; [16]", "result": "~42", "unit": "%"},
      {"measurement": "inhibition at 3 µM", "setting": "[6]; [15]", "result": "~42", "unit": "%"},
      {"measurement": "inhibition at 3 µM", "setting": "[6]; [16]", "result": "~69", "unit": "%"},
      {"measurement": "Pain reduction results at Day 7, Incision mediated pain", "setting": "[7]; 3% (G4), Placebo (G3) 0.33", "result": 0.11},
      {"measurement": "pain relief", "setting": "[7]; 3% topical Day 1 to Day 7, day 7", "result": 67, "unit": "%"},
      {"measurement": "reduction in seizures", "setting": "[8]; dosed 1 hour prior to kainic acid, p<0.005", "result": 70, "unit": "%"},
      {"measurement": "neuroprotection (hippocampal histology)", "setting": "[8]; rat, in vivo", "result": "neuroprotective"},
      {"measurement": "activity v/s degradation margin", "setting": "[9]", "result": "greater than 100"},
      {"measurement": "bradycardia and lymphopenia", "setting": "[10]; 2 g daily topical 3% ww for 3 weeks and oral 8 mg daily for one week", "result": "without event of bradycardia and significant lymphopenia"},
      {"measurement": "concentration at 7 days", "setting": "[10]; human, in vivo, po, 8 mg daily, humans, 8 mg oral daily for 7 days", "result": "~53", "unit": "ng/mL"},
      {"measurement": "measured lymphopenia", "setting": "[10]; humans, 8 mg daily dosing for one week", "result": "up to 40%"},
      {"measurement": "lymphopenia", "setting": "[10]; humans, 8 mg oral daily for 7 consecutive days", "result": "mild lymphopenia"},
      {"measurement": "systemic exposure (mean / average)", "setting": "[10]; humans, 8 mg oral daily for 7 days", "result": 53.3, "unit": "ng/mL"},
      {"measurement": "ALC Change (%)", "setting": "[10]; [17]", "result": "−33.33% and −27.66% and −35.71% and 0% and +40% and −22.58% and −15.56% and −20%"},
      {"measurement": "CD3 Change (%)", "setting": "[10]; [17]", "result": "−18.75% and −30.32% and −30.58% and −0.6% and −12.58% and −5.77% and −12.36% and −11.86%"},
      {"measurement": "CD4 Change (%)", "setting": "[10]; [17]", "result": "−22.41% and −33.62% and −32% and −5.2% and −10.91% and −8.21% and −25.3% and −7.87%"},
      {"measurement": "CD8 Change (%)", "setting": "[10]; [17]", "result": "−19.05% and −27.87% and −31.74% and −1.67% and −13.79% and 0% and −7.06% and −11.86%"},
      {"measurement": "proinflammatory cytokines (TNFα, IL1β and IL6)", "setting": "[11]", "result": "significant reduction of proinflammatory cytokines"},
      {"measurement": "body temperature and organ histopathology", "setting": "[12]", "result": "positive impact on the body temperature and organ histopathology"},
      {"measurement": "measured lymphopenia", "setting": "[13]; 0.3 mg/kg, 6 hours post dose", "result": 40, "unit": "%"},
      {"measurement": "systemic exposure", "setting": "[13]; dose of 0.3 mg/kg", "result": 6.36, "unit": "ng/mL"},
      {"measurement": "MPO activity (ear tissue)", "setting": "[14]", "result": "significantly reduced"},
      {"measurement": "reduction of ear thickness", "setting": "[14]; 24 h after challenge, p<0.0001", "result": "~70", "unit": "%"},
      {"measurement": "reduction of ear weight", "setting": "[14]; 24 h after challenge, p<0.01", "result": "~50", "unit": "%"}
    ]}
  ]
}
